Measured values as given in patent US7754654B2, “Substituted spirocyclic ketoenols” (Bayer CropScience AG, priority 2002, dated 2010).

Key:
Type in all cases: in vivo
Setaria [1] = assay: Pre-emergence test; conditions: 250 g of ai/ha, after three weeks
Experimental: (§1) To produce a suitable preparation of active compound, 1 part by weight of active compound is mixed with the stated amount of solvent, the stated amount of emulsifier is added and the concentrate is diluted with water to the desired concentration. Seeds of the test plants are sown in normal soil. After about 24 hours, the soil is sprayed with the preparation of active compound such that the particular amounts of active compound desired are applied per unit area. The concentration of the spray liquor is chosen such that the particular amounts of active compound desired are applied in 1000 l of water/ha. After three weeks, the degree of damage to the plants is rated in % damage in comparison to the development of the untreated control. The figures denote: • 0%=no effect (like untreated control) • 100%=total destruction

Sinapis [2] = assay: Pre-emergence test; conditions: 250 g of ai/ha, after three weeks
Experimental: as §1

Avena fatua = assay: Pre-emergence test; conditions: 250 g of ai/ha, after three weeks
Experimental: as §1

Sugar beet [3] = assay: Pre-emergence test; conditions: 250 g of ai/ha, after three weeks
Experimental: as §1

Alopecurus [4] = assay: Pre-emergence test; conditions: 250 g of ai/ha, after three weeks
Experimental: as §1

Amaranthus [5] = assay: Pre-emergence test; conditions: 250 g of ai/ha, after three weeks
Experimental: as §1

Echinochloa = assay: Pre-emergence test; conditions: 250 g of ai/ha, after three weeks
Experimental: as §1

[6] = test system: larvae of the mustard beetle (Phaedon cochleariae); assay: Phaedon larvae test (cabbage leaf dip); conditions: 1000 ppm
Experimental: To produce a suitable preparation of active compound, 1 part by weight of active compound is mixed with the stated amounts of solvent and emulsifier, and the concentrate is diluted with emulsifier-containing water to the desired concentration. Cabbage leaves (Brassica oleracea) are treated by being dipped into the preparation of active compound of the desired concentration and are populated with larvae of the mustard beetle (Phaedon cochleariae) while the leaves are still moist. After the desired period of time, the kill in % is determined. 100% means that all beetle larvae have been killed; 0% means that none of the beetle larvae have been killed.

Galium = assay: Post-emergence test; conditions: 250 g of ai/ha, after three weeks
Experimental: as §1, with “Test plants” for “Seeds”, “a height of 5-15 cm” for “the test plants”, “are” for “are sown in normal soil. After about 24 hours, the soil is”

Sinapis [7] = assay: Post-emergence test; conditions: 250 g of ai/ha, after three weeks
Experimental: as §1, with “Test plants” for “Seeds”, “a height of 5-15 cm” for “the test plants”, “are” for “are sown in normal soil. After about 24 hours, the soil is”

Abutilon = assay: Post-emergence test; conditions: 250 g of ai/ha, after three weeks
Experimental: as §1, with “Test plants” for “Seeds”, “a height of 5-15 cm” for “the test plants”, “are” for “are sown in normal soil. After about 24 hours, the soil is”

Alopecurus [8] = assay: Post-emergence test; conditions: 250 g of ai/ha, after three weeks
Experimental: as §1, with “Test plants” for “Seeds”, “a height of 5-15 cm” for “the test plants”, “are” for “are sown in normal soil. After about 24 hours, the soil is”

Amaranthus [9] = assay: Post-emergence test; conditions: 250 g of ai/ha, after three weeks
Experimental: as §1, with “Test plants” for “Seeds”, “a height of 5-15 cm” for “the test plants”, “are” for “are sown in normal soil. After about 24 hours, the soil is”

Setaria [10] = assay: Post-emergence test; conditions: 250 g of ai/ha, after three weeks
Experimental: as §1, with “Test plants” for “Seeds”, “a height of 5-15 cm” for “the test plants”, “are” for “are sown in normal soil. After about 24 hours, the soil is”

Cyperus = assay: Post-emergence test; conditions: 250 g of ai/ha, after three weeks
Experimental: as §1, with “Test plants” for “Seeds”, “a height of 5-15 cm” for “the test plants”, “are” for “are sown in normal soil. After about 24 hours, the soil is”

Sugar beet [11] = assay: Post-emergence test; conditions: 250 g of ai/ha, after three weeks
Experimental: as §1, with “Test plants” for “Seeds”, “a height of 5-15 cm” for “the test plants”, “are” for “are sown in normal soil. After about 24 hours, the soil is”

Row | Compound | % damage (Setaria [1]) | % damage (Sinapis [2]) | % damage (Avena fatua) | % damage (Sugar beet [3]) | % damage (Alopecurus [4]) | % damage (Amaranthus [5]) | % damage (Echinochloa) | Kill rate in % after 7d [6] | % damage (Galium) | % damage (Sinapis [7]) | % damage (Abutilon) | % damage (Alopecurus [8]) | % damage (Amaranthus [9]) | % damage (Setaria [10]) | % damage (Cyperus) | % damage (Sugar beet [11])
1 | Cc1cc(C)c(C2=C(O)C3(CCC(OCC4CCCO4)CC3)NC2=O)c(C)c1 (single isomer, unassigned) [Ex. I-1-a-7] | 100% | 90% | 95% | 0% | 80% | 95% | 99% | 100% | – | – | – | – | – | – | – | –
2 | Cc1cc(C)c(C2=C(O)C3(CCC(OCc4ccc(Cl)cc4)CC3)NC2=O)c(C)c1 (single isomer, unassigned) [Ex. I-1-a-27] | – | – | – | – | – | – | – | – | 70% | 80% | 80% | 90% | 90% | – | – | –
3 | Cc1cc(C)c(C2=C(OC(=O)C(C)C)C3(CCC(OCc4ccccc4)CC3)NC2=O)c(C)c1 (single isomer, unassigned) [Ex. I-1-b-2] | – | – | – | – | – | – | – | – | – | 70% | – | 80% | – | 95% | 80% | 0%
